# Data published in the Deep4Chem optical property database.
# Assay: solvent given as SMILES
# Conditions: in CN(C)C=O
row,Compound,emission maximum [nm]
1,COc1ccc(-c2ccc(-c3ccc(C#N)s3)s2)cc1,479

# Same assay, conditions: in CO
row,emission maximum [nm],Compound
1,586,CC1=CC(/C=C/c2ccc(OCCCN=[N+]=[N-])cc2)=[N+]2C1=C(c1ccc(N(C)C)cc1)c1c(C)cc(C)n1[B-]2(F)F
2,509,c1ccc(N(c2ccccc2)c2ccc(-c3ncc(-c4ccc(-c5ccc(-c6cnc(-c7ccc(N(c8ccccc8)c8ccccc8)cc7)s6)s5)s4)s3)cc2)cc1
3,502,BrC1=CN2C[n+]3cc(Br)c4ccccc4c3N=C2c2ccccc21
4,399,c1ccc(Nc2nc(Nc3ccccc3)nc(Nc3cc4ccc5cccc6ccc(c3)c4c56)n2)cc1
5,395,COc1ccc(-c2nc(-c3ccccc3)c(-c3ccccc3)[nH]2)cc1

row,Compound,emission maximum [nm]
1,CCN(CC)c1ccc2ccc(=O)oc2c1,445
2,COc1ccc(-c2ccc(-c3ccc(C#N)s3)s2)cc1,476
3,COC(=O)c1ccc(C2=C3C=CC(C)=[N+]3[B-](F)(F)n3c(C)ccc32)cc1,533

# Same assay, conditions: in CS(C)=O
row,Compound,emission maximum [nm]
1,CN(C)c1ccc(-c2ccc3n2[B-](F)(F)[N+]2=C(c4ccccc4)C=CC2=C3C(F)(F)F)cc1,800
2,O=c1oc2ccccc2cc1-c1ccc(-c2cc3ccccc3oc2=O)cc1,430
3,C(=C\c1cnc2ccccc2n1)/c1ccc(N2CCCCC2)cc1,626
4,COc1ccc(-c2ccc(-c3ccc(C#N)s3)s2)cc1,484

# Same assay, conditions: in Cc1ccccc1
row,Compound,emission maximum [nm]
1,CCCCc1ccc2c(c1)c1cc(CCCC)ccc1n2-c1ccc(S(=O)(=O)c2ccc(S(=O)(=O)c3ccc(-n4c5ccc(CCCC)cc5c5cc(CCCC)ccc54)cc3)cc2)cc1,450
2,CN(C)c1ccc(-c2ccc3n2[B-](F)(F)[N+]2=C(c4ccccc4)C=CC2=C3C(F)(F)F)cc1,746
3,Cc1cc(-n2c3ccccc3c3ccccc32)ccc1-c1ccc(S(=O)(=O)c2ccccc2)cc1C,349
4,c1ccc(N(c2ccccc2)c2ccc3c4cccc5c(N(c6ccccc6)c6ccccc6)ccc(c6cccc2c63)c54)cc1,541
5,O=P1(c2ccccc2)C(c2ccc(N(c3ccccc3)c3ccccc3)cc2)=Cc2ccccc21 (stereo not given),490
6,Cc1ccc2c(c1)C1(c3ccccc3-c3ccccc31)c1cc(C)ccc1N2c1ccc2c(c1)Sc1ccccc1P2(=S)c1ccccc1 (stereo not given),454.61
7,CCC1=C(C)C2=C(c3cc(C(=O)Cl)cc(C4=C5C(C)=C(CC)C(C)=[N+]5[B-](F)(F)n5c(C)c(CC)c(C)c54)c3)c3c(C)c(CC)c(C)n3[B-](F)(F)[N+]2=C1C,562
8,O=c1oc2ccccc2cc1-c1ccc(-c2cc3ccccc3oc2=O)cc1,424
9,CCN(CC)c1ccc2ccc(=O)oc2c1,418
10,c1ccc2c(c1)c1ccccc1n2-c1ccc(-c2ccc(-c3ccc(-n4c5ccccc5c5ccccc54)nc3-n3c4ccccc4c4ccccc43)nn2)c(-n2c3ccccc3c3ccccc32)n1,400
11,COc1ccc(-c2ccc(-c3ccc(C#N)s3)s2)cc1,450
12,COC(=O)c1ccc(C2=C3C=CC(C)=[N+]3[B-](F)(F)n3c(C)ccc32)cc1,538
13,CC(C)CCC[C@@H](C)[C@H]1CC[C@H]2[C@@H]3CC=C4C[C@@H](OC(=O)Oc5cc(/C=C/c6ccc(N(C)C)cc6)ccc5[N+](=O)[O-])CC[C@]4(C)[C@H]3CC[C@]12C,554

# Same assay, conditions: in ClC(Cl)(Cl)Cl
row,Compound,emission maximum [nm]
1,CN(C)c1ccc(-c2ccc3n2[B-](F)(F)[N+]2=C(c4ccccc4)C=CC2=C3C(F)(F)F)cc1,712
2,CCN(CC)c1ccc2ccc(=O)oc2c1,412

# Same assay, conditions: in ClC(Cl)Cl
row,Compound,emission maximum [nm]
1,O=Cc1ccc(C#CC(C#Cc2ccc(C=O)s2)=Cc2ccc(C=C(C#Cc3ccc(C=O)s3)C#Cc3ccc(C=O)s3)cc2)s1,533
2,O=P1(c2ccccc2)C(c2ccc(N(c3ccccc3)c3ccccc3)cc2)=Cc2ccccc21 (stereo not given),529
3,COc1ccc2c(c1)CCc1c(-c3ccccc3)c3n(c1-2)[B-](F)(F)[N+]1=c2ccc4ccccc4c2=C(c2ccccc2)C1=N3,730
4,CCC1=C(C)C2=C(c3cc(C(=O)Cl)cc(C4=C5C(C)=C(CC)C(C)=[N+]5[B-](F)(F)n5c(C)c(CC)c(C)c54)c3)c3c(C)c(CC)c(C)n3[B-](F)(F)[N+]2=C1C,562
5,N#Cc1nc(N(Cc2ccc(F)cc2)Cc2ccc(F)cc2)c(C#N)nc1N(Cc1ccc(F)cc1)Cc1ccc(F)cc1,577
6,O=c1oc2ccccc2cc1-c1ccc(-c2cc3ccccc3oc2=O)cc1,430
7,CCN(CC)c1ccc2ccc(=O)oc2c1,435
8,CCOC(CN1C(=O)C2=C(c3cccs3)N(CC(OCC)OCC)C(=O)C2=C1c1cccs1)OCC,557
9,COc1ccc(C2=[N+]3C(=Nc4c(-c5ccccc5)c5c(n4[B-]3(F)F)-c3ccc(OC)cc3CC5)C(c3ccccc3)=C2)cc1,732
10,COc1ccc(-c2ccc(-c3ccc(C#N)s3)s2)cc1,465
11,COC(=O)c1ccc(C2=C3C=CC(C)=[N+]3[B-](F)(F)n3c(C)ccc32)cc1,538
12,CC1=CC(C)=[N+]2C1=C(c1ccc(I)cc1)c1c(C)cc(C)n1[B-]2(OCc1ccccc1)OCc1ccccc1,521.92

# Same assay, conditions: in ClCCl
row,emission maximum [nm],Compound
1,425,O=S1(=O)Nc2ccc3c(c2-c2ccccc21)-c1ccccc1S(=O)(=O)N3
2,498,CCN(CC)c1ccc2cc(-c3nc4cc(C(=O)Nc5ccccc5[N+](=O)[O-])ccc4o3)c(=O)oc2c1
3,571,CCOC(=O)c1ccc2nc(/N=N/c3ccc(N(CC)CC)cc3)sc2c1
4,554,Cc1cc(-c2cccc3ccccc23)cc(C)[o+]1
5,653,Cc1ccc(-c2c3nc(c(-c4ccc(C)cc4)c4ccc([nH]4)c(-c4ccc(OC(=O)C(C)c5ccc(Oc6ccccc6)cc5)cc4)c4nc(c(-c5ccc(C)cc5)c5ccc2[nH]5)C=C4)C=C3)cc1 (stereo not given)
6,583,C(=C\c1cnc2ccccc2n1)/c1ccc(N2CCCCC2)cc1
7,467,CCCCCCCCOc1cc(/C=C/c2cc(OCCCCCCCC)c(/C=C/c3cc(OCCCCCCCC)c(Br)cc3OCCCCCCCC)cc2OCCCCCCCC)c(OCCCCCCCC)cc1Br
8,522,CCCCCCCCCCCCN1C(=O)c2c(c3ccc4cc(-c5ccc(C(F)(F)F)cc5)c(OC)cc4c3c3c2ccc2cc(-c4ccc(C(F)(F)F)cc4)c(OC)cc23)C1=O
9,409,CC(C)(C)c1ccc(-c2c3c(c(-c4ccc(C(C)(C)C)cc4)c4cc5ccccc5cc24)Cc2c(c(-c4ccc(C(C)(C)C)cc4)c4cc5ccccc5cc4c2-c2ccc(C(C)(C)C)cc2)C3)cc1
10,439,COC(=O)C1=C(C(=O)OC)C2(c3ccccc3-c3c(C(=O)OC)cccc32)[C@@H](c2ccc(Cl)cc2)C=C2c3cc(OC)c(OC)cc3CCN21 (stereo not given in full)
11,370,CC1(C)c2ccccc2-c2cc3c(cc21)c1ccccc1n3-c1ccncc1
12,573,Cc1ccccc1-c1c2ccc(=[N+]3CCCC3)cc-2oc2cc(N3CCCC3)ccc12
13,544,Cc1cc(-c2ccc3ccccc3c2)cc(C)[o+]1

row,Compound,emission maximum [nm]
1,Cc1cc(-n2c3ccccc3c3ccccc32)ccc1-c1ccc(S(=O)(=O)c2ccccc2)cc1C,419.86
2,c1ccc(N(c2ccccc2)c2ccc3c4cccc5c(N(c6ccccc6)c6ccccc6)ccc(c6cccc2c63)c54)cc1,547
3,O=P1(c2ccccc2)C(c2ccc(N(c3ccccc3)c3ccccc3)cc2)=Cc2ccccc21 (stereo not given),544
4,CCN(CC)c1ccc2ccc(=O)oc2c1,466
5,c1ccc2c(c1)c1ccccc1n2-c1ccc(-c2ccc(-c3ccc(-n4c5ccccc5c5ccccc54)nc3-n3c4ccccc4c4ccccc43)nn2)c(-n2c3ccccc3c3ccccc32)n1,419.62
6,COc1ccc(-c2ccc(-c3ccc(C#N)s3)s2)cc1,468

# Same assay, conditions: in O
row,emission maximum [nm],Compound
1,546,COc1cc2cc(-c3ccc(C(=O)OCOC(C)=O)cc3C(=O)OCOC(C)=O)oc2cc1N1CCOCCOCCN(c2cc3oc(-c4ccc(C(=O)OCOC(C)=O)cc4C(=O)OCOC(C)=O)cc3cc2OC)CCOCCOCC1
2,665,COc1ccc(OC)c(C2=C3C=CC(=[N+](C)C)C=C3[Si](C)(C)c3cc(N(C)C)ccc32)c1

row,Compound,emission maximum [nm]
1,COc1ccc(-c2ccc(-c3ccc(C#N)s3)s2)cc1,529

# Same assay, conditions: in OCCO
row,Compound,emission maximum [nm]
1,CCN(CC)c1ccc2ccc(=O)oc2c1,445

# Same assay, conditions: in c1cc(-n2c3ccccc3c3ccccc32)nc(-n2c3ccccc3c3ccccc32)c1
row,Compound,emission maximum [nm]
1,CCCCc1ccc2c(c1)c1cc(CCCC)ccc1n2-c1ccc(S(=O)(=O)c2ccc(S(=O)(=O)c3ccc(-n4c5ccc(CCCC)cc5c5cc(CCCC)ccc54)cc3)cc2)cc1,467.24

# Same assay, conditions: in c1ccccc1
row,Compound,emission maximum [nm]
1,CCN(CC)c1ccc2ccc(=O)oc2c1,395
